This note sets out measurements from patent US8374794B1, “Protein synthesis modulators” (Rib-X Pharmaceuticals, Inc., priority 2003, dated 2013).

The assay addresses T1, H. marismortui large ribosomal subunit (Haloarcula marismortui, UniProt P32411).
T1 construct: Ribosomes were purified and crystallized as described previously; endogenous in cells; host or cells: Haloarcula marismortui (ribosomes purified from the organism)
Kind of assay: X-ray diffraction of large ribosomal subunit crystals soaked with cycloheximide. It counts as binding. Particulars: crystals soaked with about 30 mM cycloheximide, 1% DMSO, 4° C., 24 hours; difference Fourier maps at 3.0 A resolution. The method, then: The present invention is based, in part, upon the three-dimensional structure of cycloheximide when associated with the large ribosomal subunit. Crystals of the H. marismortui large ribosomal subunit were soaked with cycloheximide at a concentration of about 30 mM, which is equivalent to about […], and the structure of the large ribosome subunit complexed with cycloheximide was resolved via X-ray diffraction studies.
Briefly, a small amount of a concentrated cycloheximide solution was added to a large subunit crystal suspended in stabilization solution and incubated for several hours. Following freezing and the other procedures normally used to prepare such crystals for experimental use, X-ray diffraction data were collected from the cycloheximide containing crystals. […]
The atomic co-ordinates of the large ribosomal subunit associated with cycloheximide are recorded on compact disk, Disk No. 1, under file name cycloheximide.pdb. […]
Electron density corresponding to the antibiotic was first seen in Fo (antibiotic)-Fc (native) difference Fourier maps at 3.0 A resolution. […] The atomic co-ordinates defining the structure of cycloheximide when bound to the large ribosomal subunit are recorded on compact disk, Disk No. 1 under file name cycloheximide.pdb.

With `C[C@@H]1C[C@@H]([C@H](O)CC2CC(=O)NC(=O)C2)C(=O)[C@@H](C)C1` (relative stereo) [cycloheximide, [1S-[1α(S*),3α,5β]]-4-[2-(3,5-dimethyl-2-oxocyclohexyl)-2-hydroxyethyl]-2,6-piperidinedione], the “binding of cycloheximide in the large ribosomal subunit (specific vs. non-specific sites)” value was “bound to a single location in the large ribosomal subunit”.
